# Earlier results in patent US20250222021A1, “METHOD OF TREATING ACID-BASE DISORDERS” (Renosis, Inc., priority 2017, published 2025).
# Test system: adult patients with CKD and serum bicarbonate 16 to 20 mmol/L
# Details: 2 years
structure (smiles),measurement,setting,value
O=C([O-])O.[Na+] [sodium bicarbonate],Patients who developed ESRD,,6.5%
same,Patients with rapid progression (rapid decline of CrCl >3 ml/min per 1.73 m^2/yr),,9%
same,Relative risk of ESRD versus control,,0.13
same,Relative risk of rapid progression versus control,,0.15
same,Decrease in creatinine clearance (CrCl),average 1.82 g/day bicarbonate,1.88 ml/min per 1.73 m^2
